Laboratory results: ChEMBL document CHEMBL5223090, “Annual review of lysine-specific demethylase 1 (LSD1/KDM1A) inhibitors in 2021” (Eur J Med Chem, 2022)
One block for each molecule: values may come before it.

Tests used:
[1] = test system: A549; test: cells; conditions: Homo sapiens
[2] = test system: MCF7; test: cells; conditions: Homo sapiens
[3] = target: Histone deacetylase 2 (Homo sapiens, UniProt Q92769); test: Inhibition of HDAC2 (unknown origin)
[4] = test system: HCT-116; test: Antiproliferative activity against human HCT-116 cells assessed as cell growth inhibition; type: functional, cell-based
[5] = test system: PC-3; test: Antiproliferative activity against human PC-3 cells assessed as cell growth inhibition; type: functional, cell-based
[6] = test system: HepG2; test: Antiproliferative activity against human HepG2 cells assessed as cell growth inhibition; type: functional, cell-based
[7] = test system: SK-OV-3; test: Antiproliferative activity against human SK-OV-3 cells assessed as cell growth inhibition; type: functional, cell-based
[8] = target: T1, Lysine-specific histone demethylase 1A (Homo sapiens, UniProt O60341)
[9] = test system: SGC-7901; test: Antiproliferative activity against human SGC-7901 cells assessed as cell growth inhibition; type: functional, cell-based
[10] = Antiproliferative activity against human SGC7901/ADR cells assessed as cell growth inhibition; type: functional, cell-based; conditions: SGC-7901
[11] = target: T1, Lysine-specific histone demethylase 1A; test: Inhibition of LSD1 (unknown origin) at 0.4 uM relative to control
[12] = target: T2, MAO-A (Homo sapiens, UniProt P21397); test: Inhibition of MAO-A (unknown origin) at 0.4 uM relative to control
T2 sequence (P21397 whole entry): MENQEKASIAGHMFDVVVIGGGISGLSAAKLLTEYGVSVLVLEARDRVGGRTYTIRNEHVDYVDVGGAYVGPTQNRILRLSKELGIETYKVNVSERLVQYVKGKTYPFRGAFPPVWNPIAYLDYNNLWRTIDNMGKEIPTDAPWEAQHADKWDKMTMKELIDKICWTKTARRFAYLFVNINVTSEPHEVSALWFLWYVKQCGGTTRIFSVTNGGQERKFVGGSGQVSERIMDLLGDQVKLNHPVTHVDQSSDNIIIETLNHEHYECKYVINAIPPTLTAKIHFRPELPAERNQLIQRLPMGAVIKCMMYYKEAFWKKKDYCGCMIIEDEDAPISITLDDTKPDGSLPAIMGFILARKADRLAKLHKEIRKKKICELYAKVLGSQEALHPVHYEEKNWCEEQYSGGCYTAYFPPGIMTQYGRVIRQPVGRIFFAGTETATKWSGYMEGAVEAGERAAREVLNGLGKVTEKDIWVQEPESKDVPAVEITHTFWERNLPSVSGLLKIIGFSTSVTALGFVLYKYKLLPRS

[13] = target: T3, MAO-B (Homo sapiens, UniProt P27338); test: Inhibition of MAO-B (unknown origin) at 0.4 uM relative to control
T3 sequence (P27338 whole entry): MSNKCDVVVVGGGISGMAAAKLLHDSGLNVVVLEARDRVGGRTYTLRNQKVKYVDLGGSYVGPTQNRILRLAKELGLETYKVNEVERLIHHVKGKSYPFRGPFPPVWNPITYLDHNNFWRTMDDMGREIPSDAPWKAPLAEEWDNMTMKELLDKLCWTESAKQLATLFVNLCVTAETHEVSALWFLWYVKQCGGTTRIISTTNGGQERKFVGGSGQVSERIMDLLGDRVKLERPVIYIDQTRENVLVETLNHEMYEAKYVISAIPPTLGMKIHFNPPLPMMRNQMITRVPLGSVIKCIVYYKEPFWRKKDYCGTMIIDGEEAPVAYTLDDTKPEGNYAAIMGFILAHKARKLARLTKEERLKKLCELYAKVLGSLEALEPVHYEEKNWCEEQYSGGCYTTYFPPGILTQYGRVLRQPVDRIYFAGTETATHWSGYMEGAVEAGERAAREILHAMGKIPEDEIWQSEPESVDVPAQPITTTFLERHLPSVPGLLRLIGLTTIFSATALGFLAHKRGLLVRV

[14] = test system: A549
[15] = test system: THP-1; test: cells; conditions: Homo sapiens
[16] = test system: MGC-803; test: cells; conditions: Homo sapiens
[17] = test system: NCI-H460; test: cells; conditions: Homo sapiens
[18] = in vitro; conditions: human, THLE-2 cells
[19] = test system: MDA-MB-231; test: Antiproliferative activity against human MDA-MB-231 cells assessed as cell growth inhibition; type: functional, cell-based
[20] = test system: Bel-7402; test: cells; conditions: Homo sapiens

Sequence of Histone deacetylase 2 (Q92769 whole entry): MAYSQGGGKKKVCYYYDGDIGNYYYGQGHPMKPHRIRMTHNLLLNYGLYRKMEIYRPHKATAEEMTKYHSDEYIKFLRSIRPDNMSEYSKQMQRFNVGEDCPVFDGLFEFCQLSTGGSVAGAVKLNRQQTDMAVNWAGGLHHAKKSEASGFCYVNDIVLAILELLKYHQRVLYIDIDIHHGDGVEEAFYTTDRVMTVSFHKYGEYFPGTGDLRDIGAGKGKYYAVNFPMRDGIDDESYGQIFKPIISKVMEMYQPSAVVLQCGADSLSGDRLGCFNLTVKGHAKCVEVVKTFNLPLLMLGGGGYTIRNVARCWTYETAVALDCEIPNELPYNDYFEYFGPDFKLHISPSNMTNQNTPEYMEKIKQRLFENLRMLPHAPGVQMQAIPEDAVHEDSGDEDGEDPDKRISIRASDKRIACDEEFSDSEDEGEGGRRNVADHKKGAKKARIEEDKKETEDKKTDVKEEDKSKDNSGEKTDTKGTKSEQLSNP

- IC50 [1]: 5.3 µM
- IC50 [2]: 6.91 µM
SMILES: Cn1c(C(=O)Nc2cccc3c2CCCN3Cc2ccc(OC3CCNCC3)cc2)cc2sccc21

- IC50 [8]: 0.54 µM
SMILES: Cn1c(C(=O)Nc2cccc3c2N(Cc2ccc(OC4CCNCC4)cc2)CCC3)cc2cc(F)ccc21

- IC50 [1]: 8.49 µM
- IC50 [2]: 0.35 µM
SMILES: O=C(CC(=O)c1ccc(C(F)(F)F)cc1)Nc1cccc2c1CCCN2Cc1ccc(OC2CCNCC2)cc1

- IC50 [1]: 2.13 µM
- IC50 [2]: 2.35 µM
SMILES: Cn1c(C(=O)Nc2cccc3c2CCCN3Cc2ccc(OC3CCNCC3)cc2[N+](=O)[O-])cc2sccc21

- IC50 [1]: 7.61 µM
- IC50 [2]: 7.02 µM
SMILES: Cn1c(C(=O)CC(=O)Nc2cccc3c2CCCN3Cc2ccc(OC3CCNCC3)cc2)cc2ccccc21

- IC50 [8]: 2.08 µM
SMILES: O=C(c1ccc(OCCN2CCCCC2)cc1)c1c(-c2ccc(O)cc2)sc2cc(O)ccc12 [RALOXIFENE]

Continued, molecule first:

SMILES: Cc1ccc(-c2cc(/C=C/c3ccc(C(=O)NO)cc3)ccn2)c(F)c1
- IC50 [3]: > 10 µM

SMILES: O=S1(=O)CCCCN(S(=O)(=O)c2ccc(-c3cnc(C4CC4)o3)cc2)c2ccccc21
- IC50 [4]: 0.263 µM
- IC50 [5]: 5.88 µM
- IC50 [6]: 2.17 µM
- IC50 [7]: 1.62 µM

SMILES: Oc1ccc(CC2NCCc3cc(O)c(O)cc32)cc1 (configuration not stated) [HIGENAMINE]
- IC50 [8]: 1.47 µM

SMILES: COc1cc2c(c(O)c1OC)c(=O)c1ccccc1n2C [ARBORININE]
- IC50 [9]: 1.96 µM
- IC50 [10]: 0.24 µM
- inhibition [11]: 99.3%
- inhibition at 0.4 µM [12]: 23.7%
- inhibition at 0.4 µM [13]: 31%

SMILES: COc1cc(Br)c(/C=C/c2ccc(C(=O)NO)cc2)cc1OC
- IC5 [14]: 6.23 µM
- IC50 [15]: 3.39 µM

SMILES: N/C(=N\O)c1cccc(/C=C/c2ccnc(-c3cc(F)ccc3O)c2)c1
- IC50 [3]: > 100 µM

SMILES: CNCCCNCc1coc2cc(-c3ccc(C)cc3)c(-c3ccc(C#N)cc3)cc12
- IC50 [15]: 4.87 µM
- IC50 [1]: 4.08 µM
- IC50 [2]: 3.36 µM
- IC50 [16]: 6.47 µM
- IC50 [17]: 1.87 µM
- IC50 [18]: 4.2 µM

SMILES: Nc1ccc(C(=O)/C=C/c2ccccc2F)cc1
- IC50 [19]: 34.7 µM
- IC50 [2]: 13.2 µM

SMILES: COc1ccc(S(=O)(=O)N(CCSC(=S)N2CCN(C)CC2)c2cc(OC)c(OC)c(OC)c2)cc1
- IC50 [20]: 0.32 µM

SMILES: Oc1ccc(C2CNCCc3c2cc(O)c(O)c3Cl)cc1 (configuration not stated) [FENOLDOPAM]
- IC50 [8]: 0.89 µM

SMILES: COc1cc(F)c(/C=C/c2ccc(C(=O)NO)cc2)cc1OC
- IC50 [15]: 2.15 µM
- IC50 [1]: 1.58 µM
- IC50 [2]: 4960 µM
